# Measurements from patent publication US9113629B2, “4-amino-6-(4-substituted-phenyl)-picolinates and 6-amino-2-(4-substituted-phenyl)-pyrimidine-4-carboxylates and their use as herbicides” (DOW AGROSCIENCES LLC, priority 2013, dated 2015).
# Like-named read-outs stand apart in the source and are kept apart here.
# Columns and labels:
# [1] = test system: Key Broadleaf Weed and Crop Species; test: Post-emergent Test II herbicidal activity (Table 5); assay type: in vivo; settings: post-emergence, 336 h, post-emergent, 14 days after application; for pest or weed control at 70 g/ha: 70 g ai/ha; for pest or weed control at 140 g/ha: 140 g ai/ha
# How it was run: (§1)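 Greenhouse-grown plants at first or second true leaf stage were sprayed post-emergence with compound in acetone/DMSO-based aqueous spray containing crop oil concentrate and surfactant, at 187 L/ha, highest rate plus ½× to 1/16× dilutions. After 14 d, injury was scored visually versus untreated plants, 0 (none) to 100% (complete kill).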
# [2] = test system: Key Grass and Sedge Weeds as well as Grass Crops; test: Post-emergent Test II herbicidal activity (Table 6); assay type: in vivo; settings: post-emergence, 336 h; for pest or weed control at 70 g/ha: application rate 70 g ai/ha; for pest or weed control at 140 g/ha: application rate 140 g ai/ha
# How it was run: as §1
# [3] = ABUTH: velvetleaf (Abutilon theophrasti), read-out: Visual Growth Reduction (%) 14 Days After Application ABUTH
# [4] = AMARE: redroot pigweed (Amaranthus retroflexus), read-out: Visual Growth Reduction (%) 14 Days After Application AMARE
# [5] = BRSNN: oilseed-rape, canola (Brassica napus), read-out: Visual Growth Reduction (%) 14 Days After Application BRSNN
# [6] = CHEAL: lambsquarters (Chenopodium album), read-out: Visual Growth Reduction (%) 14 Days After Application CHEAL
# [7] = EPHHL: wild poinsettia (Euphorbia heterophylla), read-out: Visual Growth Reduction (%) 14 Days After Application EPHHL
# [8] = HELAN: sunflower (Helianthus annuus), read-out: Visual Growth Reduction (%) 14 Days After Application HELAN
# [9] = VIOTR: wild pansy (Viola tricolor), read-out: Visual Growth Reduction (%) 14 Days After Application VIOTR
# [10] = CYPES: yellow nutsedge (Cyperus esculentus), read-out: Visual Growth Reduction (%) 14 Days After Application, CYPES
# [11] = DIGSA: crabgrass (Digitaria sanguinalis), read-out: Visual Growth Reduction (%) 14 Days After Application, DIGSA
# [12] = ECHCG: barnyardgrass (Echinochloa crus-galli), read-out: Visual Growth Reduction (%) 14 Days After Application, ECHCG
# [13] = ORYSA: rice (Oryza sativa), read-out: Visual Growth Reduction (%) 14 Days After Application, ORYSA
# [14] = SETFA: giant foxtail (Setaria faberi), read-out: Visual Growth Reduction (%) 14 Days After Application, SETFA
# [15] = SORVU: grain sorghum (Sorghum vulgare), read-out: Visual Growth Reduction (%) 14 Days After Application, SORVU
# [16] = TRZSS (wheat, Triticum aestivum), read-out: Visual Growth Reduction (%) 14 Days After Application, TRZSS
# [17] = ZEAMX: maize, corn (Zea mays), read-out: Visual Growth Reduction (%) 14 Days After Application, ZEAMX
structure (smiles),measurement,setting,value
"Nc1cc(-c2c(F)cc(Br)c(F)c2F)nc(C(=O)O)c1Cl [Compound 162, 4-amino-6-(4-bromo-2,3,6-trifluorophenyl)-3-chloropicolinic acid]",pest or weed control at 70 g/ha,[1]; [3],85 to 94%
same,pest or weed control at 140 g/ha,[1]; [3],85 to 94%
same,pest or weed control at 70 g/ha,[1]; [4],95 to 100%
same,pest or weed control at 140 g/ha,[1]; [4],95 to 100%
same,pest or weed control at 70 g/ha,[1]; [5],95 to 100%
same,pest or weed control at 140 g/ha,[1]; [5],95 to 100%
same,pest or weed control at 70 g/ha,[1]; [6],95 to 100%
same,pest or weed control at 140 g/ha,[1]; [6],95 to 100%
same,pest or weed control at 70 g/ha,[1]; [7],95 to 100%
same,pest or weed control at 140 g/ha,[1]; [7],95 to 100%
same,pest or weed control at 70 g/ha,[1]; [8],85 to 94%
same,pest or weed control at 140 g/ha,[1]; [8],85 to 94%
same,pest or weed control at 70 g/ha,[1]; [9],95 to 100%
same,pest or weed control at 140 g/ha,[1]; [9],95 to 100%
same,pest or weed control at 70 g/ha,[2]; [10],95 to 100%
same,pest or weed control at 140 g/ha,[2]; [10],45 to 59%
same,pest or weed control at 70 g/ha,[2]; [11],75 to 84%
same,pest or weed control at 140 g/ha,[2]; [11],75 to 84%
same,pest or weed control at 70 g/ha,[2]; [12],85 to 94%
same,pest or weed control at 140 g/ha,[2]; [12],75 to 84%
same,pest or weed control at 70 g/ha,[2]; [13],45 to 59%
same,pest or weed control at 140 g/ha,[2]; [13],45 to 59%
same,pest or weed control at 70 g/ha,[2]; [14],85 to 94%
same,pest or weed control at 140 g/ha,[2]; [14],75 to 84%
same,pest or weed control at 70 g/ha,[2]; [15],85 to 94%
same,pest or weed control at 140 g/ha,[2]; [15],95 to 100%
same,pest or weed control at 70 g/ha,[2]; [16],45 to 59%
same,pest or weed control at 140 g/ha,[2]; [16],45 to 59%
same,pest or weed control at 70 g/ha,[2]; [17],60 to 74%
same,pest or weed control at 140 g/ha,[2]; [17],75 to 84%
